Data published in patent US5504097A, “N-hydroxyureas as 5-lipoxygenase inhibitors and inhibitors of oxidative modification of low density lipoprotein” (American Home Products Corporation, priority 1995, dated 1996).

Assays:
5-Lipoxygenase = target: T1, 5-Lipoxygenase (Homo sapiens, UniProt P09917); experiment: Inhibition of 5-Lipoxygenase in Human Whole Blood (LTB4, calcium ionophore A23187); type: cell-based; conditions: 1 μM
T1 construct: from tissue; host or cells: whole blood of male human donors (endogenous enzyme of the leukocytes)
T1 sequence (P09917 1-674): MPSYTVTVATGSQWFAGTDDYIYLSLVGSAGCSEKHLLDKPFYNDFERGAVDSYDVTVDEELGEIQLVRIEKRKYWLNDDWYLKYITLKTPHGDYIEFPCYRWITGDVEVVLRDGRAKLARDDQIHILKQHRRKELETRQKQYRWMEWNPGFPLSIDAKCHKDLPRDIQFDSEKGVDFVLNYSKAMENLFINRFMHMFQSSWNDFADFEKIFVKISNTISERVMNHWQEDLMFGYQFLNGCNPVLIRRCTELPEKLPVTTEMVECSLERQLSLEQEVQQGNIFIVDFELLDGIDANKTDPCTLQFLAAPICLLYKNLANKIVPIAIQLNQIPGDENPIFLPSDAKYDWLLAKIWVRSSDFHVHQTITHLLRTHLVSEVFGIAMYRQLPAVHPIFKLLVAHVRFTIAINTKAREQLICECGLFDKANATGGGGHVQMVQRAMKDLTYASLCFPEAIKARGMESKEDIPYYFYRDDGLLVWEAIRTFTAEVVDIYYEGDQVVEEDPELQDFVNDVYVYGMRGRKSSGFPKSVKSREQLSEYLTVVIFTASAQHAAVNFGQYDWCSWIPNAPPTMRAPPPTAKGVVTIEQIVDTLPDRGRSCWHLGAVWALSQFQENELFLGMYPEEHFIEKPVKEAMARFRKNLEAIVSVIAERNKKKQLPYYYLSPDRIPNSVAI
Method: 1. Inhibition of 5-Lipoxygenase in Human Whole Blood
Blood is obtained in 50-100 ml quantities from male donors. White blood cell counts and differentials are made. Two ml of blood are placed in a 15 ml polypropylene test tube. Test compounds are solubilized in dimethylsulfoxide and diluted in 1:10 in 10% bovine serum albumin in phosphate buffered saline, pH 7.4 resulting in a final dimethylsulfoxide concentration of 0.1% in the blood. Then, solutions of test compounds are added to the blood in a shaking water bath at 37° C. for 10 minutes prior to the addition of 30 μM calcium ionophore (A23187, Sigma). After ionophore administration, whole blood samples are mixed and incubated for 20 minutes at 37° C. in a shaking water bath. Incubation is terminated by placing samples in an ice bath and immediately adding ethylene glycol-bis-(β-aminoethyl ether)-N, N,N',N'-tetraacetic acid (10 mM). Samples are mixed and centrifuged at 1200× g for 15 minutes at 4° C. Preparation of samples for evaluation by RIA or ELISA is carried out by the following protocol. Plasma is removed from sample tubes, placed in 15 ml polypropylene test tubes containing 8 ml methanol, and then vortexed to precipitate protein. Samples are stored at -70° C. overnight. The next day, samples are centrifuged at 200× g for 15 minutes at 4° C. to pellet the precipitate. Samples are dried in a Savant SpeedVac Concentrator, Model SVC 200H, reconstituted to original volume with ice cold RIA or ELISA buffer, and stored at -70° C. until assayed. The assay for eicosanoids (LTB4, T×B2, and PGE2) is performed as described by the manufacturer of the ^3 H!-RIA kit or ELISA kit (LTB4 -Amersham, T×B2 and PGE2 -Caymen Chemical).
The total eicosanoid level in 2 ml of blood is calculated and reported as ng/10^6 neutrophils. Significance is determined by a one-way analysis of variance with least significant difference (LSD) comparisons to control (p≤0.05) and IC50 's (μM) are determined by regression analysis (Finney, 1978). Drug effects are expressed as percent change from control values.

[1] = tested on: LT-dependent bronchoconstriction; experiment: Inhibition of Bronchoconstriction in Guinea Pigs Induced by Exogenously Administered Antigen (ovalbumin); type: in vivo, Male guinea pigs; conditions: Cavia porcellus, 5 min; for inhibition in vivo at 10 mg/kg: iv
Method: 4. Inhibition of Brochoconstriction in Guinea Pigs Induced by Exogenously Administered Antigen
Male guinea pigs (Charles River, Wilmington, Mass.) were sensitized 3-4 weeks prior to antigen challenge by administration of 2 i.m. injections of ovalbumin, 1 into each hind limb (35 mg total). Sensitized animals (500-600 g) were fasted overnight prior to experimentation. Conscious animals were then dosed p.o. with drug or vehicle alone (0.5% Tween 80 in H2 O) at the indicated times prior to antigen challenge, or anesthetized animals were dosed i.v. with drug or vehicle alone (DMSO) 5 min prior to antigen challenge. Animals were anesthetized by urethane (2.8 g/kg i.p.). A carotid artery and jugular vein were cannulated to allow for the monitoring of blood pressure and the administration of drugs, respectively. The trachea was then cannulated and connected to a Harvard Apparatus rodent ventilator (S. Natick, Mass). Spontaneous respiration was abolished by the administration of succinylcholine (2.5 mg/kg i.v.). The animals were then ventilated with room air at a rate of 65 breaths per min. Airway inflation pressure was measured using a Statham pressure transducer (Gould Instruments, Cleveland, Ohio) connected to the tracheal cannula via a side-arm and recorded on a Grass Instruments recorder (Quincy, Mass). The tidal volume (approximately 10 cc/kg) was adjusted to give a baseline inflation pressure of 8-10 cm H2 O at end inspiration. Animals were then allowed 20 min to stabilize.
Following the stabilization period, animals were given i.v. injections of pyrilamine (5 mg/kg), propranolol (0.1 mg/kg) and indomethacin (10 mg/kg) at 15, 10 and 5 min, respectively, prior to antigen challenge. This pretreatment results in an LT-dependent bronchoconstriction following antigen challenge, which was accomplished by i.v. administration of ovalbumin (10 mg/kg). Only one bronchoconstriction per animal was induced. End-inspiratory inflation pressure (in cm H2 O over baseline) was measured at 5 min post-antigen challenge. A mean value and standard error for the % inhibition of control bronchoconstriction in each drug-treated group was then calculated.

inhibition at 1 µM (5-Lipoxygenase) [%] | Structure (SMILES) | inhibition in vivo at 10 mg/kg [1] [%] | inhibition in vivo at 25 mg/kg ([1]; po) [%] | inhibition in vivo at 50 mg/kg ([1]; po, 50 mg/kg) [%]
50 | Cc1oc(-c2ccccc2)nc1COc1ccc(CN(O)C(N)=O)cc1 [Example 1, 1-Hydroxy-1-4-(5-methyl-2-phenyl-oxazol-4-ylmethoxy)-benzyl!-urea] | 38 | – | –
34 | Cc1oc(-c2ccc(C(F)(F)F)cc2)nc1COc1ccc(CN(O)C(N)=O)cc1 [Example 6, 1-Hydroxy-1-4-5-methyl-2-(4-trifluoromethyl-phenyl)-oxazol-4-ylmethoxy!-benzyl!-urea] | 27 | 27 | –
58 | NC(=O)N(O)Cc1ccc(OCc2coc(-c3ccccc3)n2)cc1 [Example 9, 1-Hydroxy-1-4-(2-phenyl-oxazol-4-ylmethoxy)-benzyl!-urea] | 54 | – | 44
44 | NC(=O)N(O)Cc1ccc(OCc2csc(-c3ccccc3)n2)cc1 [Example 10, 1-Hydroxy-1-4-(2-phenyl-thiazol-4-ylmethoxy)-benzyl!-urea] | 50 | 24 | –
